Assay results taken from publication PMC9220805, “The 26S Proteasome Switches between ATP-Dependent and -Independent Mechanisms in Response to Substrate Ubiquitination” (Biomolecules, 2022).

System: T1, 26S proteasome (WT proteasome)
T1 construct: gene RPT1; native 26S holoenzyme (19S + 20S) purified by 3xFLAG-tagged Rpn11; with Ubiquitin carboxyl-terminal hydrolase RPN11
Experiment: SDS-PAGE fluorescence degradation assay of Cy5-labelled ubiquitinated substrate
Format: biochemical, Saccharomyces cerevisiae
Details: 1 mM ATPγS in place of ATP regeneration system; 100 nM proteasome, 20 nM substrate, 5 mM MgCl2, pH 7.5, 30 °C; nonhydrolyzable ATP analog

For `Nc1ncnc2c1ncn2[C@@H]1O[C@H](COP(=O)(O)OP(=O)(O)OP(O)(O)=S)[C@@H](O)[C@H]1O` [ATPγS], the “SDS-PAGE fluorescence degradation assay of Cy5-labelled ubiquitinated substrate” value was “ATPγS considerably slowed degradation of the ubiquitinated-Rpn4-containing substrate”.
